The target in this experiment is T1, FabD (malonyl-coenzyme A transacylase; malonyl-CoA:ACP transacylase) (Escherichia coli, UniProt P0AAI9).
T1 construct: full ORF in pET28b (NcoI/EcoRI), one extra N-terminal glycine, no His tag; expressed in E. coli BL21* DE3
The experiment is described as follows: CPM fluorescence detection of CoA-SH after TCA precipitation of holo-ACP, initial rates. In kind it is biochemical. Conditions: holo-ACP 125 µM; 25 mM MOPS, 100 mM NaCl, 1 mg/ml BSA, pH 7.1, 30°C. The source says: CPM fluorescence detection of CoA-SH after TCA precipitation of holo-ACP, initial rates on FabD (malonyl-coenzyme A transacylase; malonyl-CoA:ACP transacylase)

Experimental findings from article PMC5023282, “A rapid fluorometric assay for the S-malonyltransacylase FabD and other sulfhydryl utilizing enzymes” (Journal of Biological Methods, 2016) are described below.

Each structure is given as a SMILES string.

T1 sequence (P0AAI9 2-309): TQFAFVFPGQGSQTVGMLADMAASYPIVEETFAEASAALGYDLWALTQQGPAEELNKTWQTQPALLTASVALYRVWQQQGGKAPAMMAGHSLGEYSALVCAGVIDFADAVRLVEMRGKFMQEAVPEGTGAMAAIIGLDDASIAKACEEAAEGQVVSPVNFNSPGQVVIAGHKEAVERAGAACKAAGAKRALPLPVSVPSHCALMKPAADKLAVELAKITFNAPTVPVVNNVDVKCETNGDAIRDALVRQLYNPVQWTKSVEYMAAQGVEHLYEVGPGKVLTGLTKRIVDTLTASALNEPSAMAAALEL

With `CC(C)(COP(=O)(O)OP(=O)(O)OC[C@H]1O[C@@H](n2cnc3c(N)ncnc32)[C@H](O)[C@@H]1OP(=O)(O)O)[C@@H](O)C(=O)NCCC(=O)NCCSC(=O)CC(=O)O` [malonyl-CoA], the Km worked out at 60 ± 20 µM.

A word on the Km: it is the concentration of substrate that gives half-maximal velocity.
